Source: article PMC9897792, “Discovery of novel 2-(4-(benzyloxy)-5-(hydroxyl) phenyl) benzothiazole derivatives as multifunctional MAO-B inhibitors for the treatment of Parkinson’s disease” (Journal of Enzyme Inhibition and Medicinal Chemistry, 2023)
Where “and” joins values, the source holds several entries; their conditions need not be identical. Equal values may be shown once. Read-outs that look alike come from different tables or passages of the source.

Experiments:
[1] = molecular target: T1, MAO-B (Homo sapiens, UniProt P27338); experiment: MAO-B inhibition, kynuramine method; format: biochemical
T1 sequence (P27338 1-520): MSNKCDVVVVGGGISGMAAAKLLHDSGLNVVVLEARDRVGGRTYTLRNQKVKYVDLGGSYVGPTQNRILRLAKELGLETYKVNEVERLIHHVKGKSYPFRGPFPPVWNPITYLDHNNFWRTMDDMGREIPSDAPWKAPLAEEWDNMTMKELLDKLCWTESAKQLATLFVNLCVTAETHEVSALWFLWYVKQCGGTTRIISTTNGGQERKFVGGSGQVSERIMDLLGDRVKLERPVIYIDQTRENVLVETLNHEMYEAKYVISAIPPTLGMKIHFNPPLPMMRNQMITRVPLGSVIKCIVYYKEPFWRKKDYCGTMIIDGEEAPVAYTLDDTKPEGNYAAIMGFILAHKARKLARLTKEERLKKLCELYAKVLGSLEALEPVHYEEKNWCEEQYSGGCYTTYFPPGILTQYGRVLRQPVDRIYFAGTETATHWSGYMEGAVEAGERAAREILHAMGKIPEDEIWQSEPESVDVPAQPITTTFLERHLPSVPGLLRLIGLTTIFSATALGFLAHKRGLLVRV

[2] = molecular target: T2, MAO-A (Homo sapiens, UniProt P21397); experiment: MAO-A inhibition, kynuramine method; format: biochemical; settings: for inhibition at 10 µM: read-out: %Inhibition MAO-A
T2 sequence (P21397 1-527): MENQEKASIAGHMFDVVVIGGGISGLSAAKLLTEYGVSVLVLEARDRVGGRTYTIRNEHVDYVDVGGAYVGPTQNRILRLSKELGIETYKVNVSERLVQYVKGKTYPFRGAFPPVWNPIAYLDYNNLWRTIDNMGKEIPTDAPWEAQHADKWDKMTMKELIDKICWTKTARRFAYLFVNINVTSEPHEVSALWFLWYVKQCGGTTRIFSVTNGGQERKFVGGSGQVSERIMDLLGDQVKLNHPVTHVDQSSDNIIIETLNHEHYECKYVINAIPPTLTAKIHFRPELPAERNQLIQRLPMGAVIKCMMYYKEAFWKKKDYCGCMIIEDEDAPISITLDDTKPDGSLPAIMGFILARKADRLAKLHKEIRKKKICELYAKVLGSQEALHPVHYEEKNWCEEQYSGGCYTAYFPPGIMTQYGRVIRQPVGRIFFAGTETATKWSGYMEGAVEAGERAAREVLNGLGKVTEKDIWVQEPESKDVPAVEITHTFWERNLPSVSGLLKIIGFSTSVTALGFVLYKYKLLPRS

[3] = Oxygen radical absorbance capacity assay with fluorescein (ORAC-FL); settings: Trolox as standard
Protocol: Oxygen radical absorbance capacity assay which used fluorescein (ORAC-FL) was performed to measure the antioxidant activities of 2-(4-(benzyloxy)-5-(hydroxyl) phenyl) benzothiazole derivatives. […] It reflected that introduction of alkyl substituents on benzyloxy ring was more beneficial for the improvement of in vitro antioxidant activity. However, the position and number of substituents seem to have little influence on the antioxidative activities.
Test compounds solution (20 µL, 10 µM) and fluorescein solution (120 µL, 250 nM) were added to a black 96-wells plate in order. The mixture was incubated for 15 min at 37 °C. Then, AAPH solution (60 µL, 40 mM) was added through an automatic sampler. The fluorescence was recorded with excitation and emission wavelengths at 485 and 535 nm on the multifunctional enzyme marker (Thermo Scientific), and the area under the curve (AUC) was calculated automatically. Trolox was used as a reference, and the antioxidant activities of the compounds were expressed as Trolox equivalent. The test compound solution was replaced with PBS (20 µL) in blank well. The antioxidant activities of the test compounds were calculated by the formula: [(AUCsample − AUCblank)/(AUCtrolox − AUCblank)] × [(Trolox concentration/test sample concentration)].

[4] = PAMPA-BBB literature values ref 1 (Di et al., Eur. J. Med. Chem. 2003, 38, 223); cited from earlier work
[5] = molecular target: T1, MAO-B; experiment: Reversibility study of MAO-B inhibition by dialysis method; format: biochemical; settings: for MAO-B inhibitory mode: classified by MAO-B catalytic activity in dialysis group; for MAO-B catalytic activity, undialysis group / MAO-B catalytic activity, dialysis group: test compound 4 × IC50; for MAO-B catalytic activity, undialysis group: 4 °C for 24 h without dialysis; for MAO-B catalytic activity, dialysis group: dialysis 24 h
Protocol: The mixture was incubated at 37 °C for 30 min and transferred to dialysis bag (MWCO: 10 000, flattening width: 24 mm, length: 8–10 cm). Then, this dialysis bag was placed in 200 ml PBS for 24 h, and the outer PBS was replaced with fresh at 3 and 7 h, respectively. As for the undialysis group, the mixture was placed at 4 °C for 24 h. After dialysis, the mixtures (40 µL) in the dialysis bag were taken out to measure the catalytic activity, and the test method was similar with the inhibition experiment of MAOs. […] The test compound solution was replaced with PBS buffer at the same volume in the blank group.

[6] = at the concentration of 10.0 μM, n.a. = no active, percent inhibition <5.0%

Oc1cc(OCc2ccccc2)ccc1-c1nc2ccccc2s1 [3a, 2-(Benzo[d]thiazol-2-yl)-5-(benzyloxy)phenol]
IC50 [1]: 3.93 ± 0.259 µM | inhibition at 10 µM [2, 6]: 24.83 ± 0.11% | ORAC [3]: 2.13 ± 0.05 Trolox equivalents

Oc1cc(OCc2ccccc2F)ccc1-c1nc2ccccc2s1 [3b, 2-(Benzo[d]thiazol-2-yl)-5-((2-fluorobenzyl)oxy)phenol]
IC50 [1]: 1.67 ± 0.146 µM | inhibition at 10 µM [2, 6]: 14.25 ± 0.07% | ORAC [3]: 2.32 ± 0.02 Trolox equivalents

Oc1cc(OCc2ccccc2Cl)ccc1-c1nc2ccccc2s1 [3c, 2-(Benzo[d]thiazol-2-yl)-5-((2-chlorobenzyl)oxy)phenol]
IC50 [1]: 2.9 ± 0.031 µM | inhibition at 10 µM [2, 6]: 19.58 ± 0.06% | ORAC [3]: 2.26 ± 0.09 Trolox equivalents

Oc1cc(OCc2cccc(F)c2)ccc1-c1nc2ccccc2s1 [3d, 2-(Benzo[d]thiazol-2-yl)-5-((3-fluorobenzyl)oxy)phenol]
IC50 [1]: 0.526 ± 0.024 µM | inhibition at 10 µM [2, 6]: 18.41 ± 0.05% | ORAC [3]: 2.24 ± 0.10 Trolox equivalents

Oc1cc(OCc2cccc(Cl)c2)ccc1-c1nc2ccccc2s1 [3e, 2-(Benzo[d]thiazol-2-yl)-5-((3-chlorobenzyl)oxy)phenol]
IC50 [1]: 1.05 ± 0.083 µM | inhibition at 10 µM [2, 6]: 31.6 ± 0.28% | ORAC [3]: 2.31 ± 0.07 Trolox equivalents

Oc1cc(OCc2cccc(C(F)(F)F)c2)ccc1-c1nc2ccccc2s1 [3f, 2-(Benzo[d]thiazol-2-yl)-5-((3-(trifluoromethyl)benzyl)oxy)phenol]
IC50 [1]: 0.951 ± 0.062 µM | ORAC [3]: 2.25 ± 0.07 Trolox equivalents

COc1cccc(COc2ccc(-c3nc4ccccc4s3)c(O)c2)c1 [3g, 2-(Benzo[d]thiazol-2-yl)-5-((3-methoxybenzyl)oxy)phenol]
IC50 [1]: 1.52 ± 0.097 µM | ORAC [3]: 2.30 ± 0.04 Trolox equivalents

Oc1cc(OCc2ccc(Cl)cc2)ccc1-c1nc2ccccc2s1 [3i, 2-(Benzo[d]thiazol-2-yl)-5-((4-chlorobenzyl)oxy)phenol]
IC50 [1]: 0.314 ± 0.01 µM | inhibition at 10 µM [2, 6]: 47.14 ± 0.21% | ORAC [3]: 2.23 ± 0.06 Trolox equivalents

Cc1ccc(COc2ccc(-c3nc4ccccc4s3)c(O)c2)cc1 [3j, 2-(Benzo[d]thiazol-2-yl)-5-((4-methylbenzyl)oxy)phenol]
IC50 [1]: 1.94 ± 0.078 µM | inhibition at 10 µM [2, 6]: 34.32 ± 0.09% | ORAC [3]: 2.39 ± 0.14 Trolox equivalents

CC(C)(C)c1ccc(COc2ccc(-c3nc4ccccc4s3)c(O)c2)cc1 [3k, 2-(Benzo[d]thiazol-2-yl)-5-((4-(tert-butyl)benzyl)oxy)phenol]
IC50 [1]: 3.407 ± 0.032 µM | ORAC [3]: 2.48 Trolox equivalents and 2.48 ± 0.13 Trolox equivalents

O=[N+]([O-])c1ccc(COc2ccc(-c3nc4ccccc4s3)c(O)c2)cc1 [3l, 2-(Benzo[d]thiazol-2-yl)-5-((4-nitrobenzyl)oxy)phenol]
IC50 [1]: 0.784 ± 0.028 µM | inhibition at 10 µM [2, 6]: 25.16 ± 0.13% | ORAC [3]: 2.14 ± 0.06 Trolox equivalents

Oc1cc(OCc2ccc(F)c(F)c2)ccc1-c1nc2ccccc2s1 [3m, 2-(Benzo[d]thiazol-2-yl)-5-((3,4-difluorobenzyl)oxy)phenol]
IC50 [1]: 0.423 ± 0.009 µM | inhibition at 10 µM [2, 6]: 47.52 ± 0.36% | ORAC [3]: 2.24 ± 0.11 Trolox equivalents

Oc1cc(OCc2ccc(Cl)c(Cl)c2)ccc1-c1nc2ccccc2s1 [3n, 2-(Benzo[d]thiazol-2-yl)-5-((3,4-dichlorobenzyl)oxy)phenol]
IC50 [1]: 0.97 ± 0.011 µM | IC50 [2]: 9.8 ± 0.19 µM | ORAC [3]: 2.21 ± 0.09 Trolox equivalents

Oc1cc(OCc2ccc(F)c(Cl)c2)ccc1-c1nc2ccccc2s1 [3o, 2-(Benzo[d]thiazol-2-yl)-5-((3-chloro-4-fluorobenzyl)oxy)phenol]
IC50 [1]: 0.521 ± 0.007 µM | inhibition at 10 µM [2, 6]: 49.9 ± 0.53% | ORAC [3]: 2.27 ± 0.05 Trolox equivalents

O=C1Nc2ccc(Cl)cc2C(c2ccccc2)=NC1O (centres unmarked) [Oxazepam]
Pe (Bibl) [4]: 10 ×10⁻⁶ cm/s

CN1C(C(=O)Nc2ccccn2)=C(O)c2ccccc2S1(=O)=O [Piroxicam]
Pe (Bibl) [4]: 2.5 ×10⁻⁶ cm/s

C#CCN[C@@H]1CCc2ccccc21 [Rasagiline]
MAO-B inhibitory mode [5]: irreversible (irreversible inhibition: MAO-B catalytic activity ≤ 20%) | MAO-B catalytic activity, undialysis group [5]: 2.7% | MAO-B catalytic activity, dialysis group [5]: 4.2%

C[C@H](NCc1ccc(OCc2cccc(F)c2)cc1)C(N)=O [Safinamide]
MAO-B inhibitory mode [5]: reversible (reversible inhibition: MAO-B catalytic activity ≥ 80%) | MAO-B catalytic activity, undialysis group [5]: 39.3% | MAO-B catalytic activity, dialysis group [5]: 93.0% | inhibition at 10 µM [2]: 24.9 ± 0.04% | ORAC [3]: 1.12 ± 0.01 Trolox equivalents

Cn1c(=O)c2[nH]cnc2n(C)c1=O [Theophylline]
Pe (Bibl) [4]: 0.12 ×10⁻⁶ cm/s
